Results as given in US20220125837A1, “METHODS FOR CONTROLLED ELIMINATION OF THERAPEUTIC CELLS” (Bellicum Pharmaceuticals, Inc., priority 2014, published 2022).
Positions count from the first letter of the chain named. Names may count otherwise. Like-named read-outs stand apart in the source and are kept apart here.

How the values were obtained:
[1] = system: cells; test: AP1903 needed in vitro for effective signaling of cells; format: cell-based
Procedure: This equates to 16-160 μg/L or ˜0.016-1.6 mg/kg (1.6-160 μg/kg).

[2] = system: CD3+ΔCD19+ cells; test: CASPALLO phase I clinical trial: AP1903 in patients with GvHD after iCasp9 T cells; format: in vivo, human
Procedure: Prior to administration, the calculated dose was diluted to 100 mL in 0.9% normal saline for infusion.

[3] = system: human CD3+CD19+ T cells; test: AP1903 dose-dependent elimination in vivo of iCasp9-transduced T cells; design: species or system immune deficient mice (NSG); conditions: mouse
Procedure: The Caspase-9 polypeptide has a dose-response curve in vivo, which could be used to eliminate a variable fraction of T cells expressing the Caspase-9 polypeptide.
T cells were transduced with SFG-iCasp9-D330E-2A-ΔCD19 retrovirus and injected i.v. into immune deficient mice (NSG). […] After an additional 24 hours, mice were sacrificed and lymphocytes from the spleen (A) were isolated and analyzed by flow cytometry for the frequency of human CD3+CD19+ T cells.

[4] = cited from earlier work
[5] = system: 293 cells; test: SRα-SEAP assay in 293 cells with FRBl2-tagged CAR and iCaspase-9: rapamycin or rimiducid; format: cell-based, human; conditions: overnight
Procedure: Two tandem FRB, domains were fused to either either a 1st generation Her2-CAR or to a 1st generation CD19-CAR co-expressing inducibleiCaspase-9. 293 cells were transiently transfected with a constitutive reporter plasmid, SRα-SEAP, along with normalized levels of expression plasmids encoding Her2-CAR-FRBl2, iCaspase-9, Her2-CAR-FRBl2+iCasp9, iC9-CAR(19).FRBl2 (coexpressing both CD19-CAR-FRBl2 and iCaspase9), or control vector. […] After overnight incubation with drugs, SEAP activity was determined. […] This dose-dependent decrease required the presence of both the FRB-tagged CAR and the FKBP12-tagged Caspase-9. […] Moreover, on- or off-target-mediated CAR clustering should increase the sensitivity of killing primarily at the site of scFv engagement.
24 hours following transfection (4.1), 293T cells are split to 96-well plates and incubated with dilutions of dimerizing drugs. Briefly, 100 μL media is added to each well of a 96-well flat-bottom plate. Drugs are diluted in tubes to a concentration 4× the top concentration in the gradient to be place on the plate. […]
24 hours after drug stimulation, 96-well plates are wrapped to prevent evaporation and incubated at 65° C. for 2 hours to inactivate endogenous and serum phosphatases while the heat-stable SeAP reporter remains (3, 12, 14). […] Phosphatase activity is measured by fluorescence with excitation at 355 nm and emission at 460 nm. […]

[6] = biological target: FRB-KTF (Homo sapiens, UniProt P42345+P62942, W2101F); conditions: cited from earlier work
FRB-KTF, sequence (P42345 2012-2144 W2101F): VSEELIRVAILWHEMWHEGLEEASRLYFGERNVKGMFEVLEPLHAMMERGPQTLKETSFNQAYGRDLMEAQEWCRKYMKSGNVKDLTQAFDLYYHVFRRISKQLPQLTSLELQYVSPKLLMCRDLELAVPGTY
FRB-KTF, sequence (P62942 2-108): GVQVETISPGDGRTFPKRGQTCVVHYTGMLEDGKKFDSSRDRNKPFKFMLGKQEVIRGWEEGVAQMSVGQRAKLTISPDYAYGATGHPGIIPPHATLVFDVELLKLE

[7] = biological target: wt FRB (K2095 T2098 W2101) (Homo sapiens, UniProt P42345+P62942); conditions: cited from earlier work
wt FRB (K2095 T2098 W2101), sequence (P62942 2-108): as above
wt FRB (K2095 T2098 W2101), sequence (P42345 2012-2144): as the sequence (P42345 2012-2144 W2101F) above, with F90W counted along it

[8] = biological target: FRB-PLF (Homo sapiens, UniProt P42345+P62942, K2095P/T2098L/W2101F); conditions: cited from earlier work
FRB-PLF, sequence (P42345 2012-2144 K2095P/T2098L/W2101F): as the sequence (P42345 2012-2144 W2101F) above, with K84P, T87L counted along it
FRB-PLF, sequence (P62942 2-108): as the sequence (P62942 2-108) above

[9] = system: HEK293T/16 cells; test: Secreted alkaline phosphatase (SEAP) surrogate killing assay of iCasp9 mutants; format: cell-based, human; conditions: SEAP assay without AP1903; relative to wild type Caspase-9
Procedure: Early passage HEK293T/16 cells (ATCC, Manassas, Va.) were maintained in IMDM, GlutaMAX™ (Life Technologies, Carlsbad, Calif.) supplemented with 10% FBS, 100 U/mL penicillin, and 100 U/mL streptomycin until transfection in a humidified, 37° C., 5% CO2/95% air atmosphere. Cells in logarithmic-phase growth were transiently transfected with 800 ng to 2 μg of expression plasmid encoding iCasp9 mutants and 500 ng of an expression plasmid encoding SRα promoter driven SEAP per million cells in 15-mL conical tubes. […] GeneJammer® Transfection Reagent at a ratio of 3 μl per ug of plasmid DNA was used to transiently transfect HEK293T/16 cells in the absence of antibiotics. 100 μl or 2 mL of the transfection mixture was added to each well in 96-well or 6-well plate, respectively.
Briefly, after 65° C. heat denaturation for 45 minutes to reduce background caused by endogenous (and serum-derived) alkaline phosphatases that are sensitive to heat, 5 μl of supernatants was added to 95 μl of PBS and added to 100 μl of substrate buffer, containing 1 μl of 100 mM 4-methylumbelliferyl phosphate (4-MUP; Sigma, St. Louis, Mo.) re-suspended in 2 M diethanolamine. Hydrolysis of 4-MUP by SEAP produces a fluorescent substrate with excitation/emission (355/460 nm), which can be easily measured. […] 1000-ul of the mixture was seeded onto each well of a 96-well plate. […] For the assay, 4-methylumbelliferyl phosphate substrate was hydrolyzed by SEAP to 4-methylumbelliferon, a metabolite that can be excited with 364 nm and detected with an emission filter of 448 nm. Since SEAP is used as a marker for cell viability, reduced SEAP reading corresponds with increased iCaspase-9 activities.

[10] = system: PG13 packaging cells; format: cell-based
[11] = system: primary T cells; test: AP1903-dependent cytotoxicity in primary T cells transduced with caspase variants; format: cell-based, human; conditions: AP1903 at Day 0 and day 4
Procedure: The effects of various caspase polypeptides at mostly single copy in primary T cells was assayed. This may reflect more accurately how these suicide genes will be used therapeutically.
Primary T cells from healthy donors (n=6) were transduced with retrovirus encoding mutant or wild-type iCasp9 or iCasp9-D330A, and the ΔCD19 cell surface marker. Following transduction, iCasp9-transduced T cells were purified using CD19-microbeads and a magnetic column.

## CC[C@H](C(=O)N1CCCC[C@H]1C(=O)O[C@H](CCc1ccc(OC)c(OC)c1)c1cccc(OCC(=O)NCCNC(=O)COc2cccc([C@@H](CCc3ccc(OC)c(OC)c3)OC(=O)[C@@H]3CCCCN3C(=O)[C@@H](CC)c3cc(OC)c(OC)c(OC)c3)c2)c1)c1cc(OC)c(OC)c(OC)c1 (relative stereo) [AP1903, 2-Piperidinecarboxylic acid, 1-[(2S)-1-oxo-2-(3,4,5-trimethoxyphenyl)butyl]-, 1,2-ethanediylbis[imino(2-oxo-2,1-ethanediyl)oxy-3,1-phenylene[(1R)-3-(3,4-dimethoxyphenyl)propylidene]] ester, [2S-[1(R*),2R*[S*[S*[1(R*),2R*]]]]]-(9Cl)]
[1]
  amount needed in vitro for effective signaling of cells: 10 to 100 nM
[2]; patients with grade I/II aGVHD, 0.4 mg/kg 2 h infusion, within 30 minutes of infusion
  ablation of CD3+ΔCD19+ cells: > 90%
[2]; two patients
  time to resolution of skin and liver aGvHD: ≤ 24 h
[2]; within 24 hours
  further change of CD3+ΔCD19+ cells: further log reduction
[3]
  dose sufficient to eliminate most modified T cells in vivo: 0.5 mg/kg
[4]; 2 hours post-dose
  plasma level as % of maximal concentration: ~7%
[4]; 10 hours post-dose
  plasma level as % of maximal concentration: ~1%
[4]; Phase I study
  well-tolerated doses: up to 1 mg/kg
[5]; at much lower levels of drug
  SEAP activity, % of normal levels: about 20%

## S-Butanesulfonamidorap
[6]
  EC50: > 200 nM

## CO[C@H]1C[C@@H]2CC[C@@H](C)[C@@](O)(O2)C(=O)C(=O)N2CCCC[C@H]2C(=O)O[C@H]([C@H](C)C[C@@H]2CC[C@@H](O)[C@H](OC)C2)CC(=O)[C@H](C)/C=C(\C)[C@@H](O)[C@@H](OC)C(=O)[C@H](C)C[C@H](C)/C=C/C=C/C=C/1C [Rapamycin]
[5]; FRB-tagged CAR plus FKBP12-tagged Caspase-9
  maximal decrease of SEAP activity: ~50%

## CO[C@@H]1C[C@H](C[C@@H](C)[C@@H]2CC(=O)[C@H](C)/C=C(\C)[C@@H](O)[C@@H](OC)C(=O)[C@H](C)C[C@H](C)/C=C/C=C/C=C(\C)[C@H](OC(C)C)C[C@@H]3CC[C@@H](C)[C@@](O)(O3)C(=O)C(=O)N3CCCC[C@H]3C(=O)O2)CC[C@H]1O [R-Isopropoxyrapamycin]
[7]
  EC50: ~300 nM
[8]
  EC50: ~8.5 nM

B1: D330E: chimeric modified Caspase-9 polypeptide (protein)
chain: VDGFGDVGALESLRGNADLAYILSMEPCGHCLIINNVNFCRESGLRTRTGSNIDCEKLRRRFSSLHFMVEVKGDLTAKKMVLALLELARQDHGALDCCVVVILSHGCQASHLQFPGAVYGTDGCPVSVEKIVNIFNGTSCPSLGGKPKLFFIQACGGEQKDHGFEVASTSPEDESPGSNPEPDATPFQEGLRTFDQLEAISSLPTPSDIFVSYSTFPGFVSWRDPKSGSWYVETLDDIFEQWAHSEDLQSLLLRVANAVSVKGIYKQMPGCFNFLRKKLFFKTSASRA
[9]
  basal activity, in words: less basal activity than wild type Caspase-9
[10]
  CD19 mean fluorescence intensity of transduced PG13 cells, in words: enhanced CD19 mean fluorescence intensity (MFI)
[10]; upon HAT media treatment, HT1080 cells
  viral titers, in words: higher viral titers

B2: F404Y: chimeric modified Caspase-9 polypeptide (protein)
chain: B1 chain with E198D, F272Y
[11]
  killing of target T cells within 10 days, in words: indistinguishable from wild type Caspase-9 polypeptide or D330A
